Measurements taken from patent US8748411B2, “Antineoplastic compounds and pharmaceutical compositions thereof” (Centro de Ingenieria Genetica y Biotechnologia, priority 2005, dated 2014).
Read-outs that look alike come from different tables or passages of the source. Where a SMILES comes first, the peptide text is derived from it.

What was measured:
[1] = molecular target: oncoprotein E7 from Human Papilloma Virus type 16 as GST fusion protein (E7-GST), phosphorylated by CK2 enzyme (Human papillomavirus type 16, UniProt P03129); type: biochemical; conditions: read-out: Inhibitory concentration 50 (IC50)
[2] = tested on: H-125 cells; assay: Cytotoxic effect on cultured human tumour cells (MTS, 72 h); type: cell-based; conditions: read-out: Inhibitory concentration 50 (IC50)
Experimental: H-125 cells from a human Non Small Cells Lung Carcinoma were soiled in 96 well plates (Costar) to a 2×10^4 cell/ml density in Dulbecco (DMEM) media (Gibco) and supplemented with Foetal Calf Serum (Gibco). 24 hours later the chemical compounds described herein were added to the cultured media in a range between 0.5 and 100 nM, incubating the mixture for 72 h at 37° C. in 5% CO2, at the end 20 μl of a 1.90 mg/ml MTS solution was added. […] The results are evaluated as growth percentage to controls without any compound, and the IC50 values were estimated using each dosage-effect curve.

[3] = tested on: CK2 optimized consensus substrate sequence RRREEETEEE; assay: In vitro CK2 phosphorylation of the optimized consensus substrate peptide […], filter radioactivity; type: biochemical; conditions: read-out: Inhibitory concentration 50 (IC50)
Experimental: The assay consists in performing an in vitro phosphorylation reaction, using as the substrate the sequence […] (SEQ. ID NO. 1) widely accepted as an optimized consensus phosphorylation domain for the CK2 substrates.
Before the enzymatic reaction the substrate peptide was preincubated one hour at 37° C., with different concentrations of the chemical compounds. The reaction is carried out in a mixture consisting of 50 μl Tris:HCL 25 mM pH 7.5 buffer, 1 μCi of ^32P-γATP, 100 μM ATP, 40 μl E7-GST containing resin, 0.2 M NaCl, 10 mM MgCl and 1 unit of the CK2 enzyme (Promega), allowing it to proceed for 10 minutes at 37° C. After the reaction 5 μl of the reaction mixture were applied to a Whatmann PE-81 paper filter and washed four times with 10 mM H3PO4, finally the paper associated radioactivity was measured and the cpm value for each sample was directly correlated with the CK2 enzymatic activity.
The IC50 values were estimated using each dosage-effect curve.

[4] = tested on: H-125 cells tumour implant; set-up: species or system BalbC nude mice; conditions: mouse, in vivo
[5] = tested on: Jurkat cells; conditions: cited from earlier work
[6] = NCI-H125, H-125 cells, 72 h, MTS, absorbance 492 nm
[7] = substrate peptide preincubated 1 h at 37° C., reaction 10 minutes at 37° C., 100 μM ATP

oncoprotein E7 from Human Papilloma Virus type 16 as GST fusion protein (E7-GST), phosphorylated by CK2 enzyme, sequence (P03129 whole entry, looked up, the tested form may be a part): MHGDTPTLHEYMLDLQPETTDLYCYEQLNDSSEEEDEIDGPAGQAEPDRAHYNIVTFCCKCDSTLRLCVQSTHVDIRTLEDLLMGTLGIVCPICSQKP

## CC1=C/C(=N\NC(N)=O)CC(C)(C)C1 [C30401]
[1]
  IC50: 0.026 ± 0.011 µM
[2]; NCI-H125, 72 h
  IC50: 0.103 ± 0.021 µM
[3]
  IC50: 0.062 ± 0.011 µM

## CC(C)NC(=S)Nc1c(N)nc(O)nc1O [C30402]
[1]
  IC50: 0.03 ± 0.005 µM
[2]; [6]
  IC50: 0.098 ± 0.007 µM
[3]; [7]
  IC50: 0.074 ± 0.007 µM

## CCCCNC(=O)NCc1ccco1 [C30403]
[1]
  IC50: 0.034 ± 0.009 µM
[2]; NCI-H125, 72 h
  IC50: 0.128 ± 0.009 µM
[3]
  IC50: 0.058 ± 0.009 µM

## O=C(O)CCNC(=O)NCCC(=O)O [C30404]
[1]
  IC50: 0.02 ± 0.008 µM
[2]; NCI-H125, 72 h
  IC50: 0.115 ± 0.018 µM
[3]
  IC50: 0.061 ± 0.008 µM

## N#CCNC(=O)NCCCl [C30405]
[1]
  IC50: 0.027 ± 0.01 µM
[2]; NCI-H125, 72 h
  IC50: 0.104 ± 0.012 µM
[3]
  IC50: 0.057 ± 0.01 µM

## C/C(Cc1c[nH]c2ccccc12)=N\NC(N)=S [C30406]
[1]
  IC50: 0.032 ± 0.007 µM
[2]; NCI-H125, 72 h
  IC50: 0.097 ± 0.017 µM
[3]
  IC50: 0.06 ± 0.007 µM

## C/C=C/CC/C(=N\NC(N)=O)c1ccccc1 [C30408]
[1]
  IC50: 0.029 ± 0.002 µM
[2]; NCI-H125, 72 h
  IC50: 0.119 ± 0.008 µM
[3]
  IC50: 0.079 ± 0.005 µM

## O=C(NCO)NC1NC(=O)NC1=O (stereo not drawn) [C30409]
[1]
  IC50: 0.031 ± 0.006 µM
[2]; NCI-H125, 72 h
  IC50: 0.104 ± 0.006 µM
[3]
  IC50: 0.055 ± 0.006 µM

## Clc1cc(Cl)cc(Nc2nc(C(Cl)(Cl)Cl)nc(C(Cl)(Cl)Cl)n2)c1 [C30410]
[1]
  IC50: 0.04 ± 0.009 µM
[2]; NCI-H125, 72 h
  IC50: 0.114 ± 0.007 µM
[3]
  IC50: 0.054 ± 0.007 µM

## CC(C)(C)NC(=O)NCCCl [C30411]
[1]
  IC50: 0.027 ± 0.01 µM
[2]; NCI-H125, 72 h
  IC50: 0.126 ± 0.015 µM
[3]
  IC50: 0.066 ± 0.012 µM

## CC(C)(NC(=O)NCCCl)c1ccccc1 [C30412]
[1]
  IC50: 0.03 ± 0.003 µM
[2]; NCI-H125, 72 h
  IC50: 0.091 ± 0.015 µM
[3]
  IC50: 0.071 ± 0.005 µM

## CC(C)(CS(C)(=O)=O)NC(=O)NCCCl [C30413]
[1]
  IC50: 0.024 ± 0.009 µM
[2]; NCI-H125, 72 h
  IC50: 0.13 ± 0.011 µM
[3]
  IC50: 0.064 ± 0.011 µM

## N=C(N)C(NC=O)C(=O)NCc1ccccc1 (stereo not drawn) [C30414]
[1]
  IC50: 0.023 ± 0.009 µM
[2]; NCI-H125, 72 h
  IC50: 0.118 ± 0.009 µM
[3]
  IC50: 0.068 ± 0.009 µM

## C/C(COc1ccccc1)=N/NC(N)=S [C30415]
[1]
  IC50: 0.033 ± 0.008 µM
[2]; NCI-H125, 72 h
  IC50: 0.112 ± 0.01 µM
[3]
  IC50: 0.072 ± 0.01 µM

## NCC(=O)NCC(=O)NCC(=O)NCC(=O)O [C31416] (H-GGGG-OH)
[1]
  IC50: 0.039 ± 0.006 µM
[2]; [6]
  IC50: 0.109 ± 0.006 µM
[3]; [7]
  IC50: 0.069 ± 0.006 µM

## CN(CC(=O)O)C(=O)CNC(=O)OCc1ccccc1 [C31417] (HELM PEPTIDE1{[O=C(OCc1ccccc1)[*:2]].G.[Sar]}$$$$V2.0)
[1]
  IC50: 0.028 ± 0.011 µM
[2]; NCI-H125, 72 h
  IC50: 0.118 ± 0.021 µM
[3]
  IC50: 0.078 ± 0.011 µM

## CC(Br)C(=O)NCC(=O)NCC(=O)O (stereo not drawn) [C31418]
[1]
  IC50: 0.032 ± 0.005 µM
[2]; NCI-H125, 72 h
  IC50: 0.123 ± 0.015 µM
[3]
  IC50: 0.072 ± 0.005 µM

## NC(=S)NN=CCn1ccc(=O)n(CC=NNC(N)=S)c1=O [C31419]
[1]
  IC50: 0.03 ± 0.004 µM
[2]; NCI-H125, 72 h
  IC50: 0.132 ± 0.018 µM
[3]
  IC50: 0.06 ± 0.008 µM

## NCCC(=O)NCC(=O)NCC(=O)O [C31420] (HELM PEPTIDE1{[bAla].G.G}$$$$V2.0)
[1]
  IC50: 0.025 ± 0.007 µM
[2]; NCI-H125, 72 h
  IC50: 0.125 ± 0.01 µM
[3]
  IC50: 0.055 ± 0.011 µM

## NNC(=O)CNc1ccc(F)c(C(F)(F)F)c1 [C31421]
[1]
  IC50: 0.03 ± 0.008 µM
[2]; NCI-H125, 72 h
  IC50: 0.12 ± 0.018 µM
[3]
  IC50: 0.05 ± 0.008 µM

## NNC(=O)CNc1cccc(I)c1 [C31422]
[1]
  IC50: 0.024 ± 0.005 µM
[2]; NCI-H125, 72 h
  IC50: 0.114 ± 0.005 µM
[3]
  IC50: 0.074 ± 0.005 µM

## CC(C(=O)NCC(O)CO)n1ccnc1[N+](=O)[O-] (stereo not drawn) [C31423]
[1]
  IC50: 0.026 ± 0.008 µM
[2]; NCI-H125, 72 h
  IC50: 0.106 ± 0.009 µM
[3]
  IC50: 0.076 ± 0.004 µM

## CCCC(NC(=O)CNC(=O)CN)C(=O)O (stereo not drawn) [C31424] (HELM PEPTIDE1{G.G.[CCCC(N[*:1])C(=O)O]}$$$$V2.0)
[1]
  IC50: 0.032 ± 0.013 µM
[2]; NCI-H125, 72 h
  IC50: 0.162 ± 0.011 µM
[3]
  IC50: 0.062 ± 0.001 µM

## O=C(O)CNC(=S)C(=S)NCC(=O)O [C32425]
[4]
  antitumoral response: significant antitumoral response
[1]
  IC50: 0.035 ± 0.003 µM
[2]; NCI-H125, 72 h
  IC50: 0.115 ± 0.012 µM
[3]
  IC50: 0.065 ± 0.013 µM

## NCCNCCNCCNCCN [C33426]
[4]
  antitumoral response: significant antitumoral response
[1]
  IC50: 0.029 ± 0.008 µM
[2]; NCI-H125, 72 h
  IC50: 0.109 ± 0.019 µM
[3]
  IC50: 0.079 ± 0.009 µM

## OCCNCCCNc1ccnc2cc(Cl)ccc12 [C34428]
[1]
  IC50: 0.025 ± 0.007 µM
[2]; NCI-H125, 72 h
  IC50: 0.165 ± 0.012 µM
[3]
  IC50: 0.065 ± 0.01 µM

## O=S(=O)(O)Nc1cnc(O)nc1O [C34429]
[1]
  IC50: 0.021 ± 0.012 µM
[2]; NCI-H125, 72 h
  IC50: 0.131 ± 0.004 µM
[3]
  IC50: 0.061 ± 0.004 µM

## O=C1NC(=O)C(CS(=O)(=O)Nc2cccc(C(F)(F)F)c2)N1 (stereo not drawn) [C34430]
[1]
  IC50: 0.03 ± 0.004 µM
[2]; NCI-H125, 72 h
  IC50: 0.14 ± 0.014 µM
[3]
  IC50: 0.07 ± 0.004 µM

## O=C(NNCCO)c1ccncc1 [C34431]
[1]
  IC50: 0.032 ± 0.006 µM
[2]; NCI-H125, 72 h
  IC50: 0.155 ± 0.023 µM
[3]
  IC50: 0.055 ± 0.003 µM

## O=C(O)c1cc(O)nc(SCc2ccc(Cl)cc2Cl)n1 [C34432]
[1]
  IC50: 0.029 ± 0.007 µM
[2]; NCI-H125, 72 h
  IC50: 0.127 ± 0.007 µM
[3]
  IC50: 0.067 ± 0.007 µM

## NCCC(=O)NCc1ccccc1 [C34433]
[1]
  IC50: 0.026 ± 0.01 µM
[2]; NCI-H125, 72 h
  IC50: 0.116 ± 0.018 µM
[3]
  IC50: 0.076 ± 0.008 µM

## NNC(=O)CC(O)C(=O)NN (stereo not drawn) [C34434]
[1]
  IC50: 0.028 ± 0.005 µM
[2]; NCI-H125, 72 h
  IC50: 0.108 ± 0.021 µM
[3]
  IC50: 0.078 ± 0.001 µM

## NC(CC(=O)NC(=O)OCc1ccccc1)C(=O)O (stereo not drawn) [C34435]
[1]
  IC50: 0.034 ± 0.003 µM
[2]; NCI-H125, 72 h
  IC50: 0.124 ± 0.016 µM
[3]
  IC50: 0.064 ± 0.006 µM

## N#CC(Nc1ccccc1C(N)=O)c1ccccc1 (stereo not drawn) [C34436]
[1]
  IC50: 0.03 ± 0.002 µM
[2]; NCI-H125, 72 h
  IC50: 0.116 ± 0.022 µM
[3]
  IC50: 0.066 ± 0.002 µM

## Cn1c(CCNC(=N)CSS(=O)(=O)O)nc2ccccc21 [C34437]
[1]
  IC50: 0.027 ± 0.004 µM
[2]; NCI-H125, 72 h
  IC50: 0.131 ± 0.009 µM
[3]
  IC50: 0.071 ± 0.009 µM

## CC(O)CNc1nc(N)nc(O)c1[N+](=O)[O-] (stereo not drawn) [C34438]
[1]
  IC50: 0.031 ± 0.001 µM
[2]; NCI-H125, 72 h
  IC50: 0.111 ± 0.017 µM
[3]
  IC50: 0.081 ± 0.007 µM

## CSc1nc(N)nc2c1ncn2C1CC(CO)C(O)C1O (stereo not drawn) [C34439]
[1]
  IC50: 0.033 ± 0.005 µM
[2]; NCI-H125, 72 h
  IC50: 0.123 ± 0.025 µM
[3]
  IC50: 0.063 ± 0.012 µM

## CCOC(=O)c1cc[nH]c1CC(=O)NN [C34440]
[1]
  IC50: 0.026 ± 0.004 µM
[2]; NCI-H125, 72 h
  IC50: 0.136 ± 0.032 µM
[3]
  IC50: 0.056 ± 0.004 µM

## Brc1c(Br)c(Br)c2[nH]nnc2c1Br [TBB, 4,5,6,7-tetrabromotriazole]
[5]
  apoptosis and caspase dependent degradation induction: potent apoptosis and caspase dependent degradation inducer
